From patent US9242012B2, “Methods for killing PSMA-expressing, taxane-resistant cancer cells” (PSMA Development Company, LLC, priority 2008, dated 2016)
Where a SMILES comes first, the peptide text is derived from it. [ ]: non-standard residue; d: D form. The star is where a group is joined. Dolaproine = CO[C@@H]([C@@H]1CCCN1)[C@@H](C)C(=O)O; Dil = CC[C@H](C)[C@H](NC)[C@@H](CC(=O)O)OC; X1 = C[C@@H](N*)[C@@H](O)c1ccccc1; NMeV = CN[C@H](C(=O)O)C(C)C

What was measured:
[1] = system: C4-2 cells; assay: C4-2 xenograft, PSMA ADC after docetaxel treatment failure (Example 3); type: in vivo, athymic nude mice
Protocol: An experiment (FIG. 10) was designed to evaluate PSMA ADC effectiveness after docetaxel treatment failure. […] At day 14, animals having a tumor volume between 100-200 mm^3 were randomized (randomization #1) into two treatment arms: (1) vehicle control (PBS buffer, n=10); (2) docetaxel at 2 mg/kg/IV weekly (n=50) according to tumor volume. The mean tumor volume was 138.0 and 138.1 mm^3 for the vehicle control and docetaxel treatment groups, respectively, at randomization.
All animals then received intravenous injections of PBS or docetaxel (Sigma, St. Louis, Mo.) at 2 mg/kg via tail vein in a volume of 0.1 mL. Tumor sizes were measured twice per week after tumor implantation, and the average tumor volume for the two groups before the second randomization was initiated were plotted (FIG. 11).
Animals were randomized into these two treatment subgroups continuously over the period of 28 days to 70 days post tumor implantation. By the end of day 70, there were 28 mice whose tumor volume had exceeded 400 mm^3, with 14 mice randomized into the PSMA ADC treatment subgroup (mean tumor volume of 695 mm^3 and 14 mice randomized into the continued docetaxel treatment subgroup (mean tumor volume of 642 mm^3 with a p-value of 0.28 (student t-test)).
The effect of PSMA ADC treatment on tumor growth after docetaxel failure was assessed by comparing tumor reduction after the second randomization. […]

[2] = system: C4-2 cells; assay: Single C4-2 xenograft mouse given docetaxel, then switched to PSMA ADC after relapse; type: in vivo, nude mouse
Protocol: The in vivo therapeutic efficacy of PSMA ADC in a subcutaneous xenograft model of human prostate cancer was assessed. […] C4-2 is an androgen-independent human prostate cancer cell line. At day 11, the tumor size of each mouse was measured, by length and width in millimeters, using a caliper (Mitutoyo, Aurora, Ill.). The tumor volume was calculated using the following formula: Volume(mm^3)=[(Length)×(Width)^2]/2
It was given 12 doses of docetaxel, IP, at 12 mg/kg weekly. As shown in FIG. 3 and Table 2, the animal initially responded to the docetaxel treatment, the tumor volume was reduced to ˜300 mm^3 at day 60, but then it progressed to ˜800 mm^3 at day 100. The treatment of docetaxel was stopped, and PSMA ADC was given IV at 6 mg/kg for an additional 12 doses, weekly. […] PSMA ADC can treat tumors that fail docetaxel treatment.

[3] = system: C4-2 cells
Protocol: Male athymic nude mice, 6-8 weeks old, obtained from Charles River Laboratories, Inc., were implanted with Matrigel subcutaneously into the right flank of each mouse with 5 million C4-2 cells (androgen-independent human prostate cancer cell line). At day 14, tumor size was measured by length and width in mm (millimeter). The volume was calculated using the formula: volume (mm^3)=[(length)×(width)^2]/2. […] Animals were dosed weekly through the tail vein.
When the tumor volume of an animal in the docetaxel treatment group exceeded 400 mm^3, this animal was randomized, at a 1:1 ratio, into one of the two treatment subgroups: one group continued to receive docetaxel at 2 mg/kg weekly (n=18), and the second group was switched to PSMA ADC treatment at 6 mg/kg/IV weekly (n=18). Mice whose tumors durably responded to docetaxel (≦400 mm^3) continued to receive docetaxel at 2 mg/kg/IV weekly. Treatment effects were assessed by measuring tumor volume and overall survival. Animal body weight was also measured. Animals with tumor size ≧2000 mm^3 were sacrificed.

[4] = system: hormone-refractory prostate cancer; conditions: cited from earlier work
[5] = Phase 1 dose-escalation study of PSMA ADC: pharmacokinetics (ELISA, LC/MS/MS); type: in vivo, human
From the text: An open-label, dose-escalation phase 1 study of PSMA ADC (comprising MMAE) in patients with taxane refractory metastatic prostate cancer (metCRPC) was initiated. The objectives of the study were to (1) determine a maximum tolerated dose (MTD) for PSMA ADC administered once every 3 weeks; (2) assess the safety, tolerability, pharmacokinetics (PK) and pharmacodynamics (PD) of PSMA ADC across the dose-escalation range; (3) assess immunogenicity; and (4) assess antitumor activity. PSMA ADC in saline was administered by IV infusion Q3 W for up to 4 cycles. Subjects received either 0.4 mg/kg, 0.7 mg/kg, 1.1 mg/kg, or 1.8 mg/kg or will receive 2.0 mg/kg (at weeks 1, 4, 7 and 10).
Adverse events, PK, PSA, circulating tumor cells, clinical disease progression and immunogenic response to PSMA ADC continued to be assessed (FIGS. 19-21). Serum concentrations of PSMA ADC and total antibody were measured by an enzyme-linked immunosorbent assay (ELISA) method, and free MMAE was measured by liquid chromatography/mass spectrometry/mass spectrometry (LC/MS/MS) method. Individual patients report bone pain reduction as described below.

Row | Compound | tumor volume course after second randomization (docetaxel failure, >400 mm^3) ([1]; PSMA ADC 6 mg/kg IV weekly or continued docetaxel 2 mg/kg) | tumor growth compared to vehicle control ([1]; docetaxel 2 mg/kg IV weekly, n=50, before second randomization, by day 21 p=0.025) | tumor volume ([2]; day 60, docetaxel IP 12 mg/kg weekly, start ~500 mm^3 at day 21) | tumor volume ([2]; day 100, progressed on docetaxel IP 12 mg/kg weekly) | tumor size of individual animals after second randomization ([3]; PSMA ADC (panel A) or continued docetaxel (panel B)) | average body weight change post second randomization ([3]; PSMA ADC versus continued docetaxel, p<0.001) | median survival post second randomization ([3]; continued docetaxel 2 mg/kg weekly, n=18) | animals sacrificed due to large tumors (>2,000 mm^3) ([3]; continued docetaxel treatment group, day 157 post second randomization) | increase in survival ([4]; docetaxel (Taxotere) in combination with prednisone, advanced prostate cancer) | survival benefit ([4]; docetaxel in combination with prednisone) | exposure to free MMAE versus dose ([5]; after IV PSMA ADC 0.4-1.8 mg/kg) | exposure to free MMAE relative to PSMA ADC ([5]; after IV PSMA ADC, serum, LC/MS/MS)
1 | CC(=O)O[C@@]12CO[C@@H]1C[C@H](O)[C@@]1(C)C(=O)[C@H](O)C3=C(C)[C@@H](OC(=O)[C@H](O)[C@@H](NC(=O)OC(C)(C)C)c4ccccc4)C[C@@](O)([C@@H](OC(=O)c4ccccc4)[C@H]21)C3(C)C [docetaxel] | grew continuously | reduced tumor growth compared to control | ~300 mm^3 | ~800 mm^3 | tumors continued to progress except in one animal | lost weight | 45 days | 16 of 18 | 2-3 months | 2.4 month |  | 
2 | CC[C@H](C)[C@@H]([C@@H](CC(=O)N1CCC[C@H]1[C@H](OC)[C@@H](C)C(=O)N[C@H](C)[C@@H](O)c1ccccc1)OC)N(C)C(=O)[C@@H](NC(=O)[C@@H](NC)C(C)C)C(C)C [MMAE, monomethylauristatin norephedrine] (H-[NMeV]V[Dil][Dolaproine]-X1) |  |  |  |  |  |  |  |  |  |  | dose proportional | < 0.1%
